Test results from patent US9763940B2, “Therapeutic use of P75 receptor antagonists” (Sanofi, priority 2011, dated 2017).
Counter-ions that a name gives are not always drawn.

Assays:
[1] = tested on: SHR male rats, characterized by overactive bladder (OAB); test: Cystometry after acute oral treatment in SHR rats with spontaneous overactive bladder; type: in vivo, rat; details: % of control period, mean±SEM
Procedure: (§1) Male adult SHR/N Ico rats (250 g; Charles River Italy), were housed 7 days prior to the surgery with free access to standard chow and water. Animals were used in accordance with sanofi international ethical code and the international principles governing the care and treatment of laboratory animals, (E.E.E Council Directive 86/609, DJL358, 1 Cec. 12, 1987) in a fully accredited AAALAC facility.
(§2) A lower midline abdominal incision was performed under general anesthesia with 2-3% isoflurane using aseptic techniques. Their body temperature was maintained at 37° C. using a homeothermic blanket. Polyethylene tubing was inserted into the dome of the bladder and secured in place with a 6-0 nylon purse-string suture. The distal end of the tubing was sealed, tunneled subcutaneously, and externalized at the back of the neck, out of the animal's reach. At the moment of the surgery animals were 16 weeks old.
(§3) After one week from surgery, animals were placed in a Small Animal Cystometry Lab Station (MED Associates, St. Albans, Vt.) for urodynamic measurements. Prior to the start of recording the bladder was emptied and the catheter was connected via a T-tube to a pressure transducer and microinjection pump. Isotonic saline (0.9% NaCl at room temperature) was infused into the bladder at a rate of 10 ml per hour. An analytical balance beneath the wire-bottomed animal cage measured the amount of urine voided during continuous cystometry. A single cystometrogram is defined as the simultaneous recording of intravesical pressure, infused volume and voided volume during a single filling-voiding cycle. At least 4 reproducible micturition cycles are recorded (basal period) after the initial stabilization period of 25 to 30 minutes, using MED-CMG software (Catamount Research &Development Company).
Then, vehicle or compounds were administered orally at 2 ml/kg.
Due to kinetic profile of compounds, urodynamic assessment was performed 1 h after treatment and at least 4 reproducible micturition cycles were recorded.
The cystometrograms are analyzed using a specific software, SOF-552 cystometry data analysis.
The following endpoints have been considered (FIG. 1): • 1. Intercontraction intervals (sec) (ICI)—Time between micturition events (micturition interval) • 2. Threshold pressure (mmHg) (TP)—Bladder pressure immediately prior to micturition • 3. Maximum bladder pressure (mmHg) (Max P)—Highest bladder pressure associated with voiding • 4. Minimum bladder pressure (mmHg) (Min P)—Lowest bladder pressure during bladder filling • 5. Infused volume (μl) (Inf. Vol)—Volume of saline infused during the micturition cycle • 6. Average bladder pressure (mmHg) (Aver P)—Average bladder pressure during bladder filling Exclusion Criteria
In order to limit the impact of inter-group or intra-group variability, all data were expressed as % of control period (100%), as mean±standard error of mean (SEM) and were averaged per group of treatment. A one way analysis of variance (ANOVA), followed by Newman-Keuls' test or Dunnett's test, were used. A probability value of p<0.05 was regarded as significant.
Effects of an Acute Treatment with p75 Antagonists on Urodynamic Parameters in SHR Rats Characterized by Spontaneous Overactive Bladder (OAB)
• Vehicle: 0.5% Polysorbate 80 (PS80) solution in buffered methylcellulose (MC 0.6%) • Compound n°1 at 10 mg/kg: suspension (0.5% PS80 plus MC 0.6%) • Compound n°2 at 3, 10, 30 mg/kg: suspension (0.5% PS80 plus MC 0.6%) • Compound n°3 at 10 mg/kg: suspension (0.5% PS80 plus MC 0.6%) • Compound n°4 at 10 mg/kg: suspension (0.5% PS80 plus MC 0.6%) Experimental Design:
In order to investigate the role of compounds according to the invention in the micturition pathway, 5 groups of 4-12 rats are used: • Group 1, Vehicle per os (po) (n=10) • Group 2, Compound n°1 at 10 mg/kg po (n=12) • Group 3, Compound n°2 at 10 mg/kg po (n=6) • Group 4, Compound n°3 at 10 mg/kg po (n=4) • Group 5, Compound n°4 at 10 mg/kg po (n=5) […]

[2] = tested on: SHR male rats, characterized by overactive bladder (OAB); test: Cystometry after one-week chronic treatment in SHR rats with spontaneous overactive bladder; type: in vivo, rat; details: 10 mg/kg po for 7 days
Procedure: as §1, §2, §3
The cystometrograms are analyzed using a specific software, SOF-552 cystometry data analysis. […]
In order to limit the impact of inter-group or intra-group variability, all data were expressed as % of control period (100%), as mean±standard error of mean (SEM) and were averaged per group of treatment. […]

[3] = 10 mg/kg po, 1 h after treatment, FIG. 2
[4] = 10 mg/kg po, 1 h after treatment, FIG. 3

Structure (SMILES) | Intercontraction intervals (ICI) [1, 3] [%] | Infused volume (bladder capacity) [1, 4] [%] | Intercontraction intervals (ICI) ([1]; dose response, 3 mg/kg po, FIG. 4) [%] | Infused volume (bladder capacity) ([1]; dose response, 3 mg/kg po, FIG. 5) [%] | Intercontraction intervals (ICI) ([1]; dose response, 10 mg/kg po, FIG. 4) [%] | Infused volume (bladder capacity) ([1]; dose response, 10 mg/kg po, FIG. 5) [%] | Intercontraction intervals (ICI) ([1]; dose response, 30 mg/kg po, FIG. 4) [%] | Infused volume (bladder capacity) ([1]; dose response, 30 mg/kg po, FIG. 5) [%] | Effect on micturition pressure parameters ([2]; SHR rats) | Intercontraction intervals (ICI) ([2]; cystometry 24 h after last treatment, % of control values, mean±SEM, FIG. 6) [%] | Infused volume (bladder capacity) ([2]; cystometry 24 h after last treatment, % of control values, mean±SEM, FIG. 7) [%]
O=C(CN1CC2CCC(C1)N2c1ncc(F)cn1)N1CC=C(c2ccc(Cl)c(C(F)(F)F)c2)CC1 [compound n°1, 1-[4-(4-chloro-3-trifluoromethyl-phenyl)-3,6-dihydro-2H-pyridin-1-yl]-2-[8-(5-fluoro-pyrimidin-2-yl)-3,8-diaza-bicyclo[3.2.1]oct-3-yl]-ethanone] | 195.5±15.4 | 194.9±15.3 |  |  |  |  |  |  |  |  | 
C[C@@H]1CN(c2ccc(C(=O)O)cn2)C[C@H](C)N1CC(=O)N1CCc2nn(-c3ccccc3)cc2C1 [compound n°2, 6-{(3S,5R)-3,5-Dimethyl-4-[2-oxo-2-(2-phenyl-2,4,6,7-tetrahydropyrazolo[4,3-c]pyridin-5-yl)ethyl]piperazin-1-yl}nicotinic acid hydrochloride] | 199.7±28.5 | 198.9±28.3 | 160.9±21.8 | 160.8±21.7 | 199.7±28.5 | 198.9±28.3 | 210.5±24.7 | 209.9±24.5 | no effect | 173.8±21.1 | 173.7±21.1
C[C@@H]1CN(c2ccc(C(=O)O)cn2)C[C@H](C)N1CC(=O)N1CC=C(c2cccc3ccoc23)CC1 [compound n°3, 6-{(3S,5R)-4-[2-(4-benzofuran-7-yl-3,6-dihydro-2H-pyridin-1-yl)-2-oxoethyl]-3,5-dimethylpiperazin-1-yl}nicotinic acid] | 167.2±20.3 | 167.14±20 |  |  |  |  |  |  |  |  | 
O=C(CN1CC2CCC(C1)N2c1cccnc1)N1CCc2nn(-c3ccccc3)cc2C1 [compound n°4, 1-(2-phenyl-2,4,6,7-tetrahydropyrazolo[4,3-c]pyridin-5-yl)-2-(8-pyridin-3-yl-3,8-diazabicyclo[3.2.1]oct-3-yl)ethanone] | 186.3±26.9 | 186.2±26.9 |  |  |  |  |  |  |  |  | 
